From the supplement of paper PMC10307832

Tests used:
Assay in all cases: relative viability (nuclei count vs DMSO), 5 days (fraction); higher = more cells survive
Daporinad + Alpelisib = compound: O=C(/C=C/c1cccnc1)NCCCCC1CCN(C(=O)c2ccccc2)CC1 [Daporinad] + Cc1nc(NC(=O)N2CCC[C@H]2C(N)=O)sc1-c1ccnc(C(C)(C)C(F)(F)F)c1 [Alpelisib] (partner 2 µM)
In short: (§1)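 Lung cancer cell lines were seeded in 1536-well plates and dosed by pin tool the next day, with either a single drug or a fixed anchor-drug dose combined with five library-drug doses (not always all listed) spaced in √10 steps. Five days later, one step fixed the cells and stained their nuclei (final 0.05% Triton X-100, 1% formaldehyde, 1 ug/ml Hoechst), and nuclei were counted on 4× images. Relative viability is the nuclei count in treated wells divided by the count in vehicle wells, and each value is the median of duplicate plates.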

R406 + Pictilisib = compound: COc1cc(Nc2ncc(F)c(Nc3ccc4c(n3)NC(=O)C(C)(C)O4)n2)cc(OC)c1OC [R406] + CS(=O)(=O)N1CCN(Cc2cc3nc(-c4cccc5[nH]ncc45)nc(N4CCOCC4)c3s2)CC1 [Pictilisib] (partner 1 µM)
In short: as §1

Daporinad + Lapatinib = compound: O=C(/C=C/c1cccnc1)NCCCCC1CCN(C(=O)c2ccccc2)CC1 [Daporinad] + CS(=O)(=O)CCNCc1ccc(-c2ccc3ncnc(Nc4ccc(OCc5cccc(F)c5)c(Cl)c4)c3c2)o1 [Lapatinib] (partner 2 µM)
In short: as §1

R406 + Lapatinib = compound: COc1cc(Nc2ncc(F)c(Nc3ccc4c(n3)NC(=O)C(C)(C)O4)n2)cc(OC)c1OC [R406] + CS(=O)(=O)CCNCc1ccc(-c2ccc3ncnc(Nc4ccc(OCc5cccc(F)c5)c(Cl)c4)c3c2)o1 [Lapatinib] (partner 2 µM)
In short: as §1

Cell Line NCI-H1755 has a relative viability (Daporinad + Alpelisib; first compound 0.0005 µM) of 0.883, a relative viability (Daporinad + Alpelisib; first compound 0.001581 µM) of 0.979 and a relative viability (Daporinad + Alpelisib; first compound 0.005 µM) of 0.599. It also gave a relative viability (Daporinad + Alpelisib; first compound 0.01581 µM) of 0.898, a relative viability (R406 + Pictilisib; first compound 0.08 µM) of 0.469 and a relative viability (R406 + Pictilisib; first compound 0.253 µM) of 0.415. The relative viability (R406 + Pictilisib; first compound 0.8 µM) was 0.496, the relative viability (R406 + Pictilisib; first compound 2.53 µM) was 0.221 and the relative viability (R406 + Pictilisib; first compound 8 µM) was 0.195. The relative viability (Daporinad + Lapatinib; first compound 0.0005 µM) was 1, the relative viability (Daporinad + Lapatinib; first compound 0.001581 µM) was 1.03 and the relative viability (Daporinad + Lapatinib; first compound 0.005 µM) was 1.06. For the same cell line, the relative viability (Daporinad + Lapatinib; first compound 0.01581 µM) was 1.07, the relative viability (R406 + Lapatinib; first compound 0.08 µM) was 1.03 and the relative viability (R406 + Lapatinib; first compound 0.253 µM) was 1.07. The relative viability (R406 + Lapatinib; first compound 0.8 µM) was 1.04, the relative viability (R406 + Lapatinib; first compound 2.53 µM) was 0.678 and the relative viability (R406 + Lapatinib; first compound 8 µM) was 0.329.

For NCI-H2023, the relative viability (Daporinad + Alpelisib; first compound 0.0005 µM) was 0.656, the relative viability (Daporinad + Alpelisib; first compound 0.001581 µM) was 0.636 and the relative viability (Daporinad + Alpelisib; first compound 0.005 µM) was 0.689. It also gave a relative viability (Daporinad + Alpelisib; first compound 0.01581 µM) of 0.651, a relative viability (R406 + Pictilisib; first compound 0.08 µM) of 0.239 and a relative viability (R406 + Pictilisib; first compound 0.253 µM) of 0.243. It also gave a relative viability (R406 + Pictilisib; first compound 0.8 µM) of 0.257, a relative viability (R406 + Pictilisib; first compound 2.53 µM) of 0.0848 and a relative viability (R406 + Pictilisib; first compound 8 µM) of 0.12. It also gave a relative viability (Daporinad + Lapatinib; first compound 0.0005 µM) of 0.699, a relative viability (Daporinad + Lapatinib; first compound 0.001581 µM) of 0.946 and a relative viability (Daporinad + Lapatinib; first compound 0.005 µM) of 0.76. The relative viability (Daporinad + Lapatinib; first compound 0.01581 µM) was 0.843, the relative viability (R406 + Lapatinib; first compound 0.08 µM) was 0.968 and the relative viability (R406 + Lapatinib; first compound 0.253 µM) was 0.976. For the same cell line, the relative viability (R406 + Lapatinib; first compound 0.8 µM) was 1.05, the relative viability (R406 + Lapatinib; first compound 2.53 µM) was 0.0633 and the relative viability (R406 + Lapatinib; first compound 8 µM) was 0.189.

NCI-H2009 gave a relative viability (Daporinad + Alpelisib; first compound 0.0005 µM) of 1.17, a relative viability (Daporinad + Alpelisib; first compound 0.001581 µM) of 1.15 and a relative viability (Daporinad + Alpelisib; first compound 0.005 µM) of 1.21. For the same cell line, the relative viability (Daporinad + Alpelisib; first compound 0.01581 µM) was 1.07, the relative viability (R406 + Pictilisib; first compound 0.08 µM) was 0.793 and the relative viability (R406 + Pictilisib; first compound 0.253 µM) was 0.76. For the same cell line, the relative viability (R406 + Pictilisib; first compound 0.8 µM) was 0.892, the relative viability (R406 + Pictilisib; first compound 2.53 µM) was 0.289 and the relative viability (R406 + Pictilisib; first compound 8 µM) was 0.192. For the same cell line, the relative viability (Daporinad + Lapatinib; first compound 0.0005 µM) was 1.3, the relative viability (Daporinad + Lapatinib; first compound 0.001581 µM) was 1.02 and the relative viability (Daporinad + Lapatinib; first compound 0.005 µM) was 1.07. The relative viability (Daporinad + Lapatinib; first compound 0.01581 µM) was 0.9, the relative viability (R406 + Lapatinib; first compound 0.08 µM) was 0.93 and the relative viability (R406 + Lapatinib; first compound 0.253 µM) was 1.19. It also gave a relative viability (R406 + Lapatinib; first compound 0.8 µM) of 1.22, a relative viability (R406 + Lapatinib; first compound 2.53 µM) of 0.0976 and a relative viability (R406 + Lapatinib; first compound 8 µM) of 0.261.
